The target in the experiment is benzodiazepine receptor. Put plainly: Benzodiazepine Receptor Binding Assay. The following applies: read-out: BZP-receptor Binding IC50; [3H]-diazepam 1.5 nM; rat brain crude synaptosome membrane; 0° C., 20 min.
In the case of `CCc1nc(-c2cc3c(-c4cccc(Cl)c4)nccc3[nH]c2=O)no1` [Example 29], the IC50 was 5.28 nM.
In the case of `O=c1[nH]c2ccnc(-c3ccc(Cl)cc3)c2cc1-c1noc(C2CC2)n1` [Example 56] it was 2.71 nM.
In the case of `CCc1nc(-c2cc3c(-c4ccc(OC)cc4)nccc3[nH]c2=O)no1` [Example 33] it was 5.5 nM; in that of `CCCc1noc(-c2cc3c(-c4ccsc4)nccc3[nH]c2=O)n1` [Example 222], 1.49 nM.
On to `CC(C)c1nc(-c2cc3c(-c4cccs4)nccc3[nH]c2=O)no1` [Example 114], for which the IC50 is 1.08 nM.
The result for `CCc1nc(-c2cc3c(-c4ccccc4C)nccc3[nH]c2=O)no1` [Example 97] reads 4.64 nM; that for `CC(C)c1noc(-c2cc3c(-c4cccc(F)c4)nccc3[nH]c2=O)n1` [Example 227], 1.46 nM; that for `O=c1[nH]c2ccnc(-c3ccccc3Cl)c2cc1-c1noc(C2CC2)n1` [Example 117], 1.41 nM.
The result for `CCCCCc1nccc2[nH]c(=O)c(-c3noc(CC)n3)cc12` [Example 22] reads 3.76 nM; that for `O=c1[nH]c2ccnc(C3CC3)c2cc1-c1noc(C2CC2)n1` [Example 51], 0.79 nM; that for `O=c1[nH]c2ccnc(-c3ccccc3F)c2cc1-c1noc(C2CC2)n1` [Example 116], 1.17 nM.
In the case of `CCc1noc(-c2cc3c(-c4ccc(Cl)cc4)nccc3[nH]c2=O)n1` [Example 204] it was 5.51 nM; in that of `CCc1noc(-c2cc3c(-c4cccc(OC)c4)nccc3[nH]c2=O)n1` [Example 209], 1.28 nM; in that of `COc1ccccc1-c1nccc2[nH]c(=O)c(-c3noc(C4CC4)n3)cc12` [Example 119], 2.53 nM.
Take `CC(C)c1nc(-c2cc3c(-c4cccc(F)c4)nccc3[nH]c2=O)no1` [Example 46]: the IC50 was determined as 2.15 nM.
`Cc1nccc2[nH]c(=O)c(-c3noc(C4CC4)n3)cc12` [Example 1, 3-(5-cyclopropyl-1,2,4-oxadiazol-3-yl)-5-methyl-1,6-naphthyridin-2(1H)-one]: the IC50 worked out at 2.28 nM.
The result for `CCCc1nc(-c2cc3c(-c4ccc(F)cc4)nccc3[nH]c2=O)no1` [Example 40] reads 7.45 nM.
In the case of `COc1ccc(-c2nccc3[nH]c(=O)c(-c4noc(C5CC5)n4)cc23)cc1` [Example 59] it was 1.98 nM; in that of `CCc1nc(-c2cc3c(-c4ccc(Cl)s4)nccc3[nH]c2=O)no1` [Example 104], 5.18 nM.
The result for `O=c1[nH]c2ccnc(C3CC3)c2cc1-c1nc(C2CC2)no1` [Example 234] reads 0.84 nM.
Consider `CCCc1nc(-c2cc3c(-c4cccc(F)c4)nccc3[nH]c2=O)no1` [Example 39], for which the IC50 was 2.86 nM.
The result for `CCCc1nc(-c2cc3c(-c4cccs4)nccc3[nH]c2=O)no1` [Example 110] reads 1.16 nM.
As to `O=c1[nH]c2ccnc(-c3cccs3)c2cc1-c1nc(C2CC2)no1` [Example 246], the IC50 stood at 1.46 nM.
Turning to `CCc1nc(-c2cc3c(-c4cccc(OC)c4)nccc3[nH]c2=O)no1` [Example 99], the 50% inhibitory concentration (IC50) was 1.67 nM.
In the case of `O=c1[nH]c2ccnc(-c3ccccc3)c2cc1-c1nc(C2CC2)no1` [Example 235] it was 0.91 nM; in that of `CC(C)c1nc(-c2cc3c(C4CC4)nccc3[nH]c2=O)no1` [Example 44], 2.62 nM.
Regarding `CCc1nc(-c2cc3c(-c4ccccc4)nccc3[nH]c2=O)no1` [Example 26], the IC50 worked out at 0.67 nM.
The result for `CCCc1nccc2[nH]c(=O)c(-c3noc(CC)n3)cc12` [Example 15] reads 6.16 nM; that for `CCCc1noc(-c2cc3c(-c4cccs4)nccc3[nH]c2=O)n1` [Example 221], 0.72 nM.
Regarding `CCCc1nc(-c2cc3c(-c4ccco4)nccc3[nH]c2=O)no1` [Example 109], the IC50 worked out at 1.75 nM.
With `Cc1nccc2[nH]c(=O)c(-c3nc(C4CC4)no3)cc12` [Example 232], the IC50 amounted to 6.48 nM.
The result for `CCCCc1nccc2[nH]c(=O)c(-c3nc(CC)no3)cc12` [Example 195] reads 4.01 nM; that for `CCc1noc(-c2cc3c(-c4ccccc4F)nccc3[nH]c2=O)n1` [Example 199], 1.55 nM.
As for `CCCc1noc(-c2cc3c(-c4ccccc4)nccc3[nH]c2=O)n1` [Example 216], the IC50 was 1.17 nM.
For the molecule `CCc1noc(-c2cc3c(-c4ccccc4OC)nccc3[nH]c2=O)n1` [Example 208], the IC50 is 4.14 nM.
As to `CCCc1noc(-c2cc3c(C4CC4)nccc3[nH]c2=O)n1` [Example 215], the IC50 came to 2.47 nM.
For the molecule `CCc1nc(-c2cc3c(-c4cccc(F)c4)nccc3[nH]c2=O)no1` [Example 27], the IC50 was found to be 0.96 nM.
The result for `O=c1[nH]c2ccnc(-c3cccs3)c2cc1-c1noc(C2CC2)n1` [Example 122] reads 0.87 nM; that for `CCc1nnc(-c2cc3c(-c4ccccc4)nccc3[nH]c2=O)o1` [Example 311], 1.91 nM; that for `CCc1nc(-c2cc3cnccc3[nH]c2=O)no1` [Example 12], 7.89 nM.
The result for `CCCc1nc(-c2cc3c(C4CC4)nccc3[nH]c2=O)no1` [Example 37] reads 3.91 nM; that for `CC(C)c1noc(-c2cc3c(-c4ccccc4F)nccc3[nH]c2=O)n1` [Example 226], 1.41 nM; that for `CCc1noc(-c2cc3c(-c4ccc(F)cc4)nccc3[nH]c2=O)n1` [Example 201], 1.84 nM.
The result for `CCc1noc(-c2cc3c(-c4ccccc4C)nccc3[nH]c2=O)n1` [Example 205] reads 4.77 nM; that for `CC(C)c1noc(-c2cc3c(-c4ccccc4)nccc3[nH]c2=O)n1` [Example 225], 2.12 nM; that for `CCc1nc(-c2cc3c(-c4cccc(C)c4)nccc3[nH]c2=O)no1` [Example 31], 1.64 nM.
Consider `CCCc1nccc2[nH]c(=O)c(-c3noc(C4CC4)n3)cc12` [Example 49], for which the IC50 was found to be 1.11 nM.
The result for `CCCCc1nccc2[nH]c(=O)c(-c3noc(CC)n3)cc12` [Example 19] reads 6.37 nM; that for `Cc1cccc(-c2nccc3[nH]c(=O)c(-c4noc(C)n4)cc23)c1` [Example 9], 1.62 nM.
The result for `CCc1nc(-c2cc3c(-c4ccc(F)cc4)nccc3[nH]c2=O)no1` [Example 28] reads 1.25 nM.
The result for `O=c1[nH]c2ccnc(-c3ccc(F)cc3)c2cc1-c1noc(C2CC2)n1` [Example 54] reads 1.21 nM; that for `O=c1[nH]c2ccnc(-c3ccc(F)cc3)c2cc1-c1nc(C2CC2)no1` [Example 238], 1.38 nM; that for `Cc1ccccc1-c1nccc2[nH]c(=O)c(-c3noc(C4CC4)n3)cc12` [Example 118], 1.28 nM.
Consider `C=C(C)c1nc(-c2cc3c(C4CC4)nccc3[nH]c2=O)no1` [Example 60], for which the IC50 stood at 2.01 nM.
In the case of `Cc1ccccc1-c1nccc2[nH]c(=O)c(-c3nc(C4CC4)no3)cc12` [Example 242] it was 1.87 nM; in that of `CCc1nc(-c2cc3c(C4CC=CCC4)nccc3[nH]c2=O)no1` (stereo not drawn) [Example 25], 1.84 nM.
In the case of `Cc1cccc(-c2nccc3[nH]c(=O)c(-c4noc(C5CC5)n4)cc23)c1` [Example 57] it was 1.55 nM; in that of `Cc1ccc(-c2nccc3[nH]c(=O)c(-c4noc(C)n4)cc23)cc1` [Example 10], 8.08 nM.
In the case of `O=c1[nH]c2ccnc(-c3cccc(F)c3)c2cc1-c1nc(C2CC2)no1` [Example 237] it was 1.86 nM; in that of `CCCc1noc(-c2cc3c(-c4ccc(F)cc4)nccc3[nH]c2=O)n1` [Example 219], 2.03 nM; in that of `CCCc1noc(-c2cc3c(-c4cccc(F)c4)nccc3[nH]c2=O)n1` [Example 218], 2.58 nM.
In the case of `COc1cccc(-c2nccc3[nH]c(=O)c(-c4noc(C5CC5)n4)cc23)c1` [Example 120], the half-inhibitory concentration (IC50) stood at 1.59 nM.
In the case of `CCCc1nc(-c2cc3c(-c4ccsc4)nccc3[nH]c2=O)no1` [Example 111] it was 2.06 nM; in that of `CC(C)c1noc(-c2cc3c(-c4cccs4)nccc3[nH]c2=O)n1` [Example 230], 0.9 nM; in that of `CCc1noc(-c2cc3c(C4CCCCC4)nccc3[nH]c2=O)n1` [Example 197], 1.97 nM.
In the case of `CCCc1nc(-c2cc3c(-c4ccccc4F)nccc3[nH]c2=O)no1` [Example 108] it was 2.14 nM; in that of `CCc1nc(-c2cc3c(-c4ccc(C)cc4)nccc3[nH]c2=O)no1` [Example 32], 3.29 nM; in that of `Cc1cccc(-c2nccc3[nH]c(=O)c(-c4nc(C5CC5)no4)cc23)c1` [Example 243], 1.81 nM.
The result for `CCCc1noc(-c2cc3c(-c4ccccc4F)nccc3[nH]c2=O)n1` [Example 217] reads 1.34 nM; that for `C=Cc1nc(-c2cc3c(C4CC4)nccc3[nH]c2=O)no1` [Example 61], 1.04 nM; that for `CC(C)c1nc(-c2cc3c(-c4ccco4)nccc3[nH]c2=O)no1` [Example 113], 2.18 nM.
For `CC(C)c1nc(-c2cc3c(-c4ccsc4)nccc3[nH]c2=O)no1` [Example 115], the IC50 came out at 1.52 nM.
In the case of `CCc1nc(-c2cc3c(-c4ccccc4OC)nccc3[nH]c2=O)no1` [Example 98], the IC50 was 8.56 nM.
As for `O=c1[nH]c2ccnc(-c3ccco3)c2cc1-c1noc(C2CC2)n1` [Example 121], the IC50 is 0.78 nM.
Regarding `O=c1[nH]c2ccnc(-c3ccccc3F)c2cc1-c1nc(C2CC2)no1` [Example 236], the IC50 was 1.61 nM.
As to `CCc1noc(-c2cc3c(-c4ccc(C)cc4)nccc3[nH]c2=O)n1` [Example 207], the IC50 is 3.42 nM.
In the case of `CC(C)c1noc(-c2cc3c(-c4ccsc4)nccc3[nH]c2=O)n1` [Example 231] it was 0.71 nM; in that of `CC(C)c1nc(-c2cc3c(-c4ccccc4F)nccc3[nH]c2=O)no1` [Example 112], 2.68 nM.

Broadly, the IC50 is the concentration that inhibits the measured activity by half.

Source of the values: patent publication US6172079A, “5-substituted-3-oxadiazolyl-1,6-naphthyridin-2(1H)-one derivatives” (Dainippon Pharmaceutical Co., Ltd., priority 1997, dated 2001).
